A short description of this data set: Solubility of celecoxib and valdecoxib in various solvent liquids. It counts as physicochemical. As to the method:
Aliquots of a solvent liquid were then added dropwise in approximately 100 mg increments to the solid sample. The resulting mixture was vortexed and/or sonicated between aliquot additions. […] Solubility values preceded by the<symbol denote that, at the particular concentration shown, the mixture was still cloudy, i.e., not all of the drug was fully in dissolved form.

Turning to `Cc1ccc(-c2cc(C(F)(F)F)nn2-c2ccc(S(N)(=O)=O)cc2)cc1` [celecoxib, 4-[5-(4-methylphenyl)-3-(trifluoromethyl)-1H-pyrazol-1-yl]benzenesulfonamide], the “Solubility in a DGME/water mixture compared with a PEG-400/water mixture” value (same ratio of mixture ingredients) was “significantly higher”. Moreover, the Solubility (solvent liquid: Capmul MCM (caprylic/capric mono- and diglycerides)) is 19 to 21 mg/g; the Solubility (solvent liquid: Labrasol/DGME/propylene glycol laurate 40:40:20 w/w) lay within 288 to 297 mg/g; the Solubility (solvent liquid: Labrasol/DGME/propylene glycol laurate 45:45:10 w/w) was 313 to 325 mg/g; the Solubility (solvent liquid: Miglyol 812 (caprylic/capric triglycerides)) lay in the range of 6 to 12 mg/g; the Solubility (solvent liquid: Tagat TO (polyoxyethylene glyceryl trioleate)) is 24 to 40 mg/g; the Solubility (solvent liquid: Tagat TO/Capmul MCM 1:1 w/w) fell in the range of 34 to 52 mg/g.

For the compound `Cc1onc(-c2ccccc2)c1-c1ccc(S(N)(=O)=O)cc1` [valdecoxib, 4-[5-methyl-3-phenylisoxazol-4-yl]benzenesulfonamide], the “Advantage in solubility for DGME over propylene glycol” value (DGME versus propylene glycol) was “approximately tenfold advantage in solubility”. The same compound showed a Solubility (solvent liquid: polyethylene glycol 400) of 50 to 85 mg/g and a Solubility (solvent liquid: propylene glycol) of 10 to 20 mg/g.

Source of the values: patent US20020107250A1, “Rapid-onset formulation of a selective cyclooxygenase-2 inhibitor” (priority 2000, published 2002).
